# Read-outs that look alike come from different tables or passages of the source.
# Tests used:
# Format in all cases: biochemical
# [1] = target: T1, LATS2 (Homo sapiens, UniProt Q9NRM7); assay: RBC HotSpot kinase assay (33P-ATP, P81 filter-binding), LATS2; details: read-out: LATS2 IC50
# T1 sequence (Q9NRM7 1-1088): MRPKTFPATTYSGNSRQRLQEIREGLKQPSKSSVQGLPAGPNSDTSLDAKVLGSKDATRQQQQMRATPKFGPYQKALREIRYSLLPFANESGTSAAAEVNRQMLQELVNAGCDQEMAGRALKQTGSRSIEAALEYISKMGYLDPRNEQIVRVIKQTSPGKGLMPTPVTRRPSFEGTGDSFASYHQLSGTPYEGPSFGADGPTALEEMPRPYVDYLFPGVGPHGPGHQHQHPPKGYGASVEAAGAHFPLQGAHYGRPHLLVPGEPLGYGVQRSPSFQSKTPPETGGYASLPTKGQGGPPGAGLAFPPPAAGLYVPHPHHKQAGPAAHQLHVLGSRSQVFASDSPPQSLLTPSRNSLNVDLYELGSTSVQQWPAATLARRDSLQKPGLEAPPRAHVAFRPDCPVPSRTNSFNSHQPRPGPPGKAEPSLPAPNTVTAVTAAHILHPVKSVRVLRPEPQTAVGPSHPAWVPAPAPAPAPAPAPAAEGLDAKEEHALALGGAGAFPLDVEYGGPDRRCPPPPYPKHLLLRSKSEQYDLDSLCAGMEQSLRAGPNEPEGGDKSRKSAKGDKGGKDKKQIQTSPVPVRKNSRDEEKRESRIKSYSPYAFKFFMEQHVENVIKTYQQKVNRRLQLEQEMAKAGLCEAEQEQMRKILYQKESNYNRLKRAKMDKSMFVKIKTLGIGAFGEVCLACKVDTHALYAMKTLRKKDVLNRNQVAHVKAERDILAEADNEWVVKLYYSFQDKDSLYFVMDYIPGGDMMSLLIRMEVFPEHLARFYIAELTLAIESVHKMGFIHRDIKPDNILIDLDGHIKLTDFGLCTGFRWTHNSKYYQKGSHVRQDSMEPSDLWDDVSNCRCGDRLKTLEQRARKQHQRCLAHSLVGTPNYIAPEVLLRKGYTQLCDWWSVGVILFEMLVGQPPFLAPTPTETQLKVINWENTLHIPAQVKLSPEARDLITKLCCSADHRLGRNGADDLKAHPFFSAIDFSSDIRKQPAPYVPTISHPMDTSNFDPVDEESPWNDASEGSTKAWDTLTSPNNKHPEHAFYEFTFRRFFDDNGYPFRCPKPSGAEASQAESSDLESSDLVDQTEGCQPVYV
# How it was run: (§1)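 Radiometric 33P-ATP kinase reaction in 20 mM Hepes pH 7.5, 10 mM MgCl2, 1 mM EGTA, 0.01% Brij35, 0.02 mg/ml BSA, 0.1 mM Na3VO4, 2 mM DTT, 1% DMSO. Compound preincubated with kinase and substrate 20 min, then 2 h at room temperature; P81 filter-binding read-out. IC50 (nM) from 10-point singlet curves.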
# [2] = target: T2, LATS1 (Homo sapiens, UniProt O95835); assay: RBC HotSpot kinase assay (33P-ATP, P81 filter-binding), LATS1; details: read-out: LATS1 IC50
# T2 sequence (O95835 1-1130): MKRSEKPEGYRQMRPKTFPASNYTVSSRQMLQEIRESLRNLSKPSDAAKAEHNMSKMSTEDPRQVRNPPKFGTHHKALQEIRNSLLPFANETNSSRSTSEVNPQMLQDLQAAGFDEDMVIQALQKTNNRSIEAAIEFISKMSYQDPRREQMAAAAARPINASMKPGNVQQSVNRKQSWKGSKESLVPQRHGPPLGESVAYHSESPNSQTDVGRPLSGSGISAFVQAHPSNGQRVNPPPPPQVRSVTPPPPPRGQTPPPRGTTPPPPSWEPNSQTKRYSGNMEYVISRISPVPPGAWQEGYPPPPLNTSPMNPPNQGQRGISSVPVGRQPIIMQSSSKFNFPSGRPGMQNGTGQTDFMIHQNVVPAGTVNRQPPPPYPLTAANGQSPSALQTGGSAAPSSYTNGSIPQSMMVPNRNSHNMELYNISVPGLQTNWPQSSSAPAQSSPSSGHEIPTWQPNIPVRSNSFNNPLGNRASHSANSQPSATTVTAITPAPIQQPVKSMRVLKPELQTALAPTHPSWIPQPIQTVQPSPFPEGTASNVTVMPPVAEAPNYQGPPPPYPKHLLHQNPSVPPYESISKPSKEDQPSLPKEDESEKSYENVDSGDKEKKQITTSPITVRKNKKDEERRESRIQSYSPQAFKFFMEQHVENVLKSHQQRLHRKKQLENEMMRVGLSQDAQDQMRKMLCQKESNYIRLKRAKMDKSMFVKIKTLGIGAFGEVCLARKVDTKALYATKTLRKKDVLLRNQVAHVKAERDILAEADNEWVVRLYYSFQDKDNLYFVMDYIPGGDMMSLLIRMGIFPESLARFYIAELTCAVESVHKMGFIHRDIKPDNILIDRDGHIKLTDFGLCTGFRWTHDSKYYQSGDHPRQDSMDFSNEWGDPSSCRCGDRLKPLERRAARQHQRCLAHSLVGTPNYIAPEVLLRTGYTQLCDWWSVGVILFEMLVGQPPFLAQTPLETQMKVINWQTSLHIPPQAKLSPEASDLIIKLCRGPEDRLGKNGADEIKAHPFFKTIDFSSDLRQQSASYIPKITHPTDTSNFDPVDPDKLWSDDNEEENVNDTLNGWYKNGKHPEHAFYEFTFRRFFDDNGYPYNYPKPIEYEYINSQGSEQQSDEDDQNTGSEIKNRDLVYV
# How it was run: as §1
# [3] = target: AKT (Homo sapiens, UniProt P31749); assay: RBC HotSpot kinase assay (33P-ATP, P81 filter-binding), AKT; details: read-out: AKT IC50
# How it was run: as §1
# [4] = Table 28, biochemical kinase assay
# [5] = Table 32, biochemical kinase assay
# Sequence of AKT (P31749 whole entry): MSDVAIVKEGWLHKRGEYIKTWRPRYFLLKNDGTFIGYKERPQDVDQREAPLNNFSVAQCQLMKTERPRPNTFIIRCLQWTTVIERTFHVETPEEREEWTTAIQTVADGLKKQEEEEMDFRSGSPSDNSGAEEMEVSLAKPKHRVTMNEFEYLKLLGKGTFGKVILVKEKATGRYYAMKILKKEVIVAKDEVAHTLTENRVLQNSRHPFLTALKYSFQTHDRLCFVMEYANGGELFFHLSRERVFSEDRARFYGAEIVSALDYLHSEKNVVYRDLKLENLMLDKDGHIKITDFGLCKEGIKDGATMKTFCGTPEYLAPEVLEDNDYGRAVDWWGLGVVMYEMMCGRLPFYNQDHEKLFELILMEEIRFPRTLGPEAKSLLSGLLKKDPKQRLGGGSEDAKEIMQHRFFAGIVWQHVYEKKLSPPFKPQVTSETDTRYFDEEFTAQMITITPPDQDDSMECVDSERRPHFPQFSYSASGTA
Compound,"IC50 [1, 4]","IC50 [2, 4]","IC50 [3, 4]",also measured
"Cc1cc(-c2ccnc3[nH]cc(C#N)c23)cc(F)c1[C@@]1(O)[C@H](C)CN(C(=O)[C@H](C)N)C[C@@H]1C [Compound 2011, 4-(4-((3S,4R,5R)-1-(L-alanyl)-4-hydroxy-3,5-dimethylpiperidin-4-yl)-3-fluoro-5-methylphenyl)-1H-pyrrolo[2,3-b]pyridine-3-carbonitrile]",,,,IC50 ([1]; biochemical kinase inhibition): 16 nM; IC50 ([2]; biochemical kinase inhibition): 25 nM; IC50 ([3]; biochemical kinase inhibition): 1030 nM
"Cc1cc(-c2ccnc3[nH]cc(C#N)c23)cc(F)c1[C@@]1(O)[C@H](C)CN(C(=O)[C@H](N)CO)C[C@@H]1C [Compound 2007, 4-(4-((3S,4S,5R)-1-(D-seryl)-4-hydroxy-3,5-dimethylpiperidin-4-yl)-3-fluoro-5-methylphenyl)-1H-pyrrolo[2,3-b]pyridine-3-carbonitrile]",,,,IC50 ([1]; biochemical kinase inhibition): 5.3 nM; IC50 ([2]; biochemical kinase inhibition): 8.5 nM; IC50 ([3]; biochemical kinase inhibition): 159 nM
"C[C@@H]1CN(Cc2ccccn2)C[C@H](C)[C@@]1(O)c1c(F)cc(-c2ccnc3[nH]cc(F)c23)cc1F [Compound 17, (3S,4s,5R)-4-(2,6-difluoro-4-(3-fluoro-1H-pyrrolo[2,3-b]pyridin-4-yl)phenyl)-3,5-dimethyl-1-(pyridin-2-ylmethyl)piperidin-4-ol]",11.9 nM,10.9 nM,1070 nM,
"Cc1cc(-c2ccnc3[nH]cc(C#N)c23)ccc1[C@@]1(O)[C@H](C)CN(C(=O)CN)C[C@@H]1C [Compound 2005, 4-(4-((3S,4s,5R)-1-glycyl-4-hydroxy-3,5-dimethylpiperidin-4-yl)-3-methylphenyl)-1H-pyrrolo[2,3-b]pyridine-3-carbonitrile]",,,,IC50 ([1]; biochemical kinase inhibition): 1.2 nM; IC50 ([2]; biochemical kinase inhibition): 3.3 nM; IC50 ([3]; biochemical kinase inhibition): 22 nM
"OC1(c2ccc(-c3ccnc4[nH]cc(F)c34)cc2)CCNCC1 [Compound 110, 4-(4-(3-fluoro-1H-pyrrolo[2,3-b]pyridin-4-yl)phenyl)piperidin-4-ol]",2.9 nM,5.7 nM,490 nM,
"Cc1cc(-c2ccnc3[nH]cc(F)c23)cc(F)c1C1(O)[C@H](C)CN(C2COC2)C[C@@H]1C (stereo partly drawn) [Compound 30, (3S,5R)-4-(2-fluoro-4-(3-fluoro-1H-pyrrolo[2,3-b]pyridin-4-yl)-6-methylphenyl)-3,5-dimethyl-1-(oxetan-3-yl)piperidin-4-ol]",9 nM,5.9 nM,698 nM,
"Cc1cc(-c2ccnc3[nH]cc(F)c23)ccc1[C@@]1(O)[C@H](C)CN(C(C)C)C[C@@H]1C [Compound 29, (3S,4s, 5R)-4-(4-(3-fluoro-1H-pyrrolo[2,3-b]pyridin-4-yl)-2-methylphenyl)-1-isopropyl-3,5-dimethylpiperidin-4-ol]",2.2 nM,1.3 nM,43.5 nM,
"C[C@@H]1CNC[C@H](C)[C@@]1(O)c1ccc(-c2ccnc3[nH]cc(F)c23)cc1OC(F)(F)F [Compound 14, (3S,4s,5R)-4-(4-(3-fluoro-1H-pyrrolo[2,3-b]pyridin-4-yl)-2-(trifluoromethoxy)phenyl)-3,5-dimethylpiperidin-4-ol]",5.5 nM,5.4 nM,112 nM,
"COC(=O)c1c[nH]c2nccc(-c3ccc(C(O)(CN)c4ccc(Cl)cc4)cc3)c12 (stereo not drawn) [Compound 1004, Methyl 4-(4-(2-amino-1-(4-chlorophenyl)-1-hydroxyethyl)phenyl)-1H-pyrrolo[2,3-b]pyridine-3-carboxylate]",,,,"IC50 [1, 5]: 5.3 nM; IC50 [2, 5]: 4 nM; IC50 [3, 5]: 18.1 nM"
"c1cc(-c2ccc(C3CC4CCC(C3)N4)cc2)c2cc[nH]c2n1 (stereo not drawn) [Compound 184, 4-(4-(8-azabicyclo[3.2.1]octan-3-yl)phenyl)-1H-pyrrolo[2,3-b]pyridine]",50 nM,25 nM,940 nM,
"Cc1cc(-c2ccnc3[nH]cc(C#N)c23)cc(F)c1[C@@]1(O)[C@H](C)CN(C(=O)[C@@H](C)N)C[C@@H]1C [Compound 2015, 4-(4-((3S,4S,5R)-1-(D-alanyl)-4-hydroxy-3,5-dimethylpiperidin-4-yl)-3-fluoro-5-methylphenyl)-1H-pyrrolo[2,3-b]pyridine-3-carbonitrile]",,,,IC50 ([1]; biochemical kinase inhibition): 2 nM; IC50 ([2]; biochemical kinase inhibition): 4 nM; IC50 ([3]; biochemical kinase inhibition): 236 nM
"COC(=O)c1c[nH]c2nccc(-c3cc(C)c([C@@]4(O)[C@H](C)CN(C5CCS(=O)(=O)CC5)C[C@@H]4C)c(F)c3)c12 [Compound 309, methyl 4-(4-((3S,4s,5R)-1-(1,1-dioxidotetrahydro-2H-thiopyran-4-yl)-4-hydroxy-3,5-dimethylpiperidin-4-yl)-3-fluoro-5-methylphenyl)-1H-pyrrolo[2,3-b]pyridine-3-carboxylate]",3 nM,3.1 nM,2270 nM,
"Cc1cc(-c2ccnc3[nH]cc(F)c23)cc(F)c1[C@@]1(O)[C@H](C)CN(C(=O)[C@H](N)CO)C[C@@H]1C [Compound 312, (R)-2-amino-1-((3S,4R,5R)-4-(2-fluoro-4-(3-fluoro-1H-pyrrolo[2,3-b]pyridin-4-yl)-6-methylphenyl)-4-hydroxy-3,5-dimethylpiperidin-1-yl)-3-hydroxypropan-1-one]",3.5 nM,8.1 nM,153 nM,

# More lines, main results first:
"IC50 [1, 4]","IC50 [2, 4]","IC50 [3, 4]",Compound,also measured
24 nM,12 nM,751 nM,"NCc1ccc(-c2ccnc3[nH]cc(-c4cccnc4)c23)cc1 [Compound 245, (4-(3-(pyridin-3-yl)-1H-pyrrolo[2,3-b]pyridin-4-yl)phenyl) methanamine]",
16 nM,17 nM,1200 nM,"Cc1cccc(-c2c[nH]c3nccc(-c4ccc(CN)cc4)c23)c1 [Compound 230, (4-(3-(m-tolyl)-1H-pyrrolo[2,3-b]pyridin-4-yl)phenyl) methanamine]",
34 nM,23 nM,1030 nM,"NCc1ccc(-c2ccnc3[nH]ccc23)cc1 [Compound 287, (4-(1H-pyrrolo[2,3-b]pyridin-4-yl)phenyl) methanamine]",
43 nM,59 nM,200 nM,"CC1(c2ccc(-c3ccnc4[nH]ccc34)cc2)CCNCC1 [Compound 201, 4-(4-(4-methylpiperidin-4-yl)phenyl)-1H-pyrrolo[2,3-b]pyridine]",
8.4 nM,13 nM,266 nM,"NCc1ccc(-c2ccnc3[nH]cc(F)c23)cc1 [Compound 275, (4-(3-fluoro-1H-pyrrolo[2,3-b]pyridin-4-yl)phenyl) methanamine]",
